Assay results from PubChem BioAssay (NCI).
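1) Cells in 96-well plates. 2) Compound, 48 h, 5 concentrations. 3) Linear interpolation between surrounding doses. 4) Unreached endpoint = highest concentration. TGI denotes the concentration required for complete inhibition of growth.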

Legend:
Test in all cases: inhibition of tumour cell growth, NCI panel, 48 h
T-47D breast = tested on: T-47D breast
SR leukemia = tested on: SR leukemia
MDA-MB-435 = tested on: MDA-MB-435
U251 CNS = tested on: U251 CNS
SK-MEL-2 melanoma = tested on: SK-MEL-2 melanoma
BT-549 breast = tested on: BT-549 breast
UACC-62 melanoma = tested on: UACC-62 melanoma
RPMI-8226 leukemia = tested on: RPMI-8226 leukemia
NCI-H460 lung = tested on: NCI-H460 lung
SK-OV-3 ovarian = tested on: SK-OV-3 ovarian
SF-295 CNS = tested on: SF-295 CNS
CCRF-CEM leukemia = tested on: CCRF-CEM leukemia
HCT-116 colon = tested on: HCT-116 colon
OVCAR-5 ovarian = tested on: OVCAR-5 ovarian
SN12C renal = tested on: SN12C renal
HCC-2998 colon = tested on: HCC-2998 colon
KM12 colon = tested on: KM12 colon
MDA-MB-231 breast = tested on: MDA-MB-231 breast
MOLT-4 leukemia = tested on: MOLT-4 leukemia
SNB-19 CNS = tested on: SNB-19 CNS
NCI-H23 lung = tested on: NCI-H23 lung
HOP-62 NSCLC = tested on: HOP-62 NSCLC
LOX IMVI melanoma = tested on: LOX IMVI melanoma
RXF 393 renal = tested on: RXF 393 renal
OVCAR-8 ovarian = tested on: OVCAR-8 ovarian
DU-145 prostate = tested on: DU-145 prostate
HS 578T breast = tested on: HS 578T breast
SK-MEL-5 melanoma = tested on: SK-MEL-5 melanoma
EKVX NSCLC = tested on: EKVX NSCLC
MCF7 breast = tested on: MCF7 breast
TK-10 renal = tested on: TK-10 renal
A549 NSCLC = tested on: A549 NSCLC
NCI-H226 lung = tested on: NCI-H226 lung
A498 renal = tested on: A498 renal
SF-268 CNS = tested on: SF-268 CNS
HCT-15 colon = tested on: HCT-15 colon
ACHN renal = tested on: ACHN renal
786-0 renal = tested on: 786-0 renal
MALME-3M melanoma = tested on: MALME-3M melanoma
M14 melanoma = tested on: M14 melanoma
SK-MEL-28 melanoma = tested on: SK-MEL-28 melanoma
HL-60(TB) leukemia = tested on: HL-60(TB) leukemia
SW-620 colon = tested on: SW-620 colon
MDA-N = tested on: MDA-N
K-562 leukemia = tested on: K-562 leukemia
SF-539 CNS = tested on: SF-539 CNS
PC-3 prostate = tested on: PC-3 prostate
SNB-75 CNS = tested on: SNB-75 CNS
HT29 colon = tested on: HT29 colon
UO-31 renal = tested on: UO-31 renal
UACC-257 melanoma = tested on: UACC-257 melanoma
HOP-92 NSCLC = tested on: HOP-92 NSCLC
IGROV1 ovarian = tested on: IGROV1 ovarian
OVCAR-3 ovarian = tested on: OVCAR-3 ovarian
OVCAR-4 ovarian = tested on: OVCAR-4 ovarian
COLO 205 colon = tested on: COLO 205 colon
NCI-H522 lung = tested on: NCI-H522 lung
CAKI-1 renal = tested on: CAKI-1 renal

SMILES: CC(C)(C)OC(=O)N1CCCC1=O
- TGI (T-47D breast): > 10 µM
- TGI (SR leukemia): > 10 µM
- TGI (MDA-MB-435): > 10 µM
- TGI (U251 CNS): > 10 µM
- TGI (SK-MEL-2 melanoma): > 10 µM
- TGI (BT-549 breast): > 10 µM
- TGI (UACC-62 melanoma): > 10 µM
- TGI (RPMI-8226 leukemia): > 10 µM
- TGI (NCI-H460 lung): > 10 µM
- TGI (SK-OV-3 ovarian): > 10 µM
- TGI (SF-295 CNS): > 10 µM
- TGI (CCRF-CEM leukemia): > 10 µM
- TGI (HCT-116 colon): > 10 µM
- TGI (OVCAR-5 ovarian): > 10 µM
- TGI (SN12C renal): > 10 µM
- TGI (HCC-2998 colon): > 10 µM
- TGI (KM12 colon): > 10 µM
- TGI (MDA-MB-231 breast): > 10 µM
- TGI (MOLT-4 leukemia): > 10 µM
- TGI (SNB-19 CNS): > 10 µM
- TGI (NCI-H23 lung): > 10 µM
- TGI (HOP-62 NSCLC): > 10 µM
- TGI (LOX IMVI melanoma): > 10 µM
- TGI (RXF 393 renal): > 10 µM
- TGI (OVCAR-8 ovarian): > 10 µM
- TGI (DU-145 prostate): > 10 µM
- TGI (HS 578T breast): > 10 µM
- TGI (SK-MEL-5 melanoma): > 10 µM
- TGI (EKVX NSCLC): > 10 µM
- TGI (MCF7 breast): > 10 µM
- TGI (TK-10 renal): > 10 µM
- TGI (A549 NSCLC): > 10 µM
- TGI (NCI-H226 lung): > 10 µM
- TGI (A498 renal): > 10 µM
- TGI (SF-268 CNS): > 10 µM
- TGI (HCT-15 colon): > 10 µM
- TGI (ACHN renal): > 10 µM
- TGI (786-0 renal): > 10 µM
- TGI (MALME-3M melanoma): > 10 µM
- TGI (M14 melanoma): > 10 µM
- TGI (SK-MEL-28 melanoma): > 10 µM
- TGI (HL-60(TB) leukemia): > 10 µM
- TGI (SW-620 colon): > 10 µM
- TGI (MDA-N): > 10 µM
- TGI (K-562 leukemia): > 10 µM
- TGI (SF-539 CNS): > 10 µM
- TGI (PC-3 prostate): > 10 µM
- TGI (SNB-75 CNS): > 10 µM
- TGI (HT29 colon): > 10 µM
- TGI (UO-31 renal): > 10 µM
- TGI (UACC-257 melanoma): > 10 µM
- TGI (HOP-92 NSCLC): > 10 µM
- TGI (IGROV1 ovarian): > 10 µM
- TGI (OVCAR-3 ovarian): > 10 µM

SMILES: Brc1ccc(N=NN2CCCC2)cc1
- TGI (T-47D breast): 97.3 µM
- TGI (SR leukemia): > 100 µM
- TGI (MDA-MB-435): > 100 µM
- TGI (U251 CNS): > 100 µM
- TGI (SK-MEL-2 melanoma): > 100 µM
- TGI (BT-549 breast): > 100 µM
- TGI (UACC-62 melanoma): > 100 µM
- TGI (RPMI-8226 leukemia): > 100 µM
- TGI (NCI-H460 lung): > 100 µM
- TGI (SK-OV-3 ovarian): > 100 µM
- TGI (SF-295 CNS): > 100 µM
- TGI (OVCAR-4 ovarian): > 100 µM
- TGI (CCRF-CEM leukemia): > 100 µM
- TGI (HCT-116 colon): > 100 µM
- TGI (OVCAR-5 ovarian): > 100 µM
- TGI (SN12C renal): > 100 µM
- TGI (HCC-2998 colon): > 100 µM
- TGI (KM12 colon): > 100 µM
- TGI (MDA-MB-231 breast): > 100 µM
- TGI (MOLT-4 leukemia): > 100 µM
- TGI (SNB-19 CNS): > 100 µM
- TGI (NCI-H23 lung): > 100 µM
- TGI (COLO 205 colon): > 100 µM
- TGI (HOP-62 NSCLC): > 100 µM
- TGI (LOX IMVI melanoma): > 100 µM
- TGI (RXF 393 renal): > 100 µM
- TGI (DU-145 prostate): > 100 µM
- TGI (HS 578T breast): > 100 µM
- TGI (SK-MEL-5 melanoma): > 100 µM
- TGI (EKVX NSCLC): > 100 µM
- TGI (MCF7 breast): > 100 µM
- TGI (TK-10 renal): > 100 µM
- TGI (A549 NSCLC): > 100 µM
- TGI (NCI-H522 lung): > 100 µM
- TGI (NCI-H226 lung): > 100 µM
- TGI (A498 renal): > 100 µM
- TGI (SF-268 CNS): > 100 µM
- TGI (CAKI-1 renal): > 100 µM
- TGI (HCT-15 colon): > 100 µM
- TGI (ACHN renal): > 100 µM
- TGI (786-0 renal): > 100 µM
- TGI (MALME-3M melanoma): > 100 µM
- TGI (M14 melanoma): > 100 µM
- TGI (SK-MEL-28 melanoma): > 100 µM
- TGI (HL-60(TB) leukemia): > 100 µM
- TGI (SW-620 colon): > 100 µM
- TGI (MDA-N): > 100 µM
- TGI (K-562 leukemia): > 100 µM
- TGI (SF-539 CNS): > 100 µM
- TGI (PC-3 prostate): > 100 µM
- TGI (HT29 colon): > 100 µM
- TGI (UO-31 renal): > 100 µM
- TGI (UACC-257 melanoma): > 100 µM
- TGI (HOP-92 NSCLC): > 100 µM
- TGI (IGROV1 ovarian): > 100 µM
- TGI (OVCAR-3 ovarian): > 100 µM

SMILES: CN(C(=O)c1ccccc1)C1CCCC(=O)CC1 (stereo unspecified)
- TGI (T-47D breast): > 100 µM
- TGI (SR leukemia): > 100 µM
- TGI (MDA-MB-435): > 100 µM
- TGI (U251 CNS): > 100 µM
- TGI (SK-MEL-2 melanoma): > 100 µM
- TGI (BT-549 breast): > 100 µM
- TGI (UACC-62 melanoma): > 100 µM
- TGI (RPMI-8226 leukemia): > 100 µM
- TGI (NCI-H460 lung): > 100 µM
- TGI (SK-OV-3 ovarian): > 100 µM
- TGI (SF-295 CNS): > 100 µM
- TGI (OVCAR-4 ovarian): > 100 µM
- TGI (CCRF-CEM leukemia): > 100 µM
- TGI (HCT-116 colon): > 100 µM
- TGI (OVCAR-5 ovarian): > 100 µM
- TGI (SN12C renal): > 100 µM
- TGI (HCC-2998 colon): > 100 µM
- TGI (KM12 colon): > 100 µM
- TGI (MDA-MB-231 breast): > 100 µM
- TGI (SNB-19 CNS): > 100 µM
- TGI (NCI-H23 lung): > 100 µM
- TGI (COLO 205 colon): > 100 µM
- TGI (HOP-62 NSCLC): > 100 µM
- TGI (LOX IMVI melanoma): > 100 µM
- TGI (RXF 393 renal): > 100 µM
- TGI (OVCAR-8 ovarian): > 100 µM
- TGI (DU-145 prostate): > 100 µM
- TGI (HS 578T breast): > 100 µM
- TGI (EKVX NSCLC): > 100 µM
- TGI (MCF7 breast): > 100 µM
- TGI (TK-10 renal): > 100 µM
- TGI (A549 NSCLC): > 100 µM
- TGI (NCI-H522 lung): > 100 µM
- TGI (NCI-H226 lung): > 100 µM
- TGI (A498 renal): > 100 µM
- TGI (SF-268 CNS): > 100 µM
- TGI (CAKI-1 renal): > 100 µM
- TGI (HCT-15 colon): > 100 µM
- TGI (ACHN renal): > 100 µM
- TGI (786-0 renal): > 100 µM
- TGI (MALME-3M melanoma): > 100 µM
- TGI (M14 melanoma): > 100 µM
- TGI (SK-MEL-28 melanoma): > 100 µM
- TGI (HL-60(TB) leukemia): > 100 µM
- TGI (SW-620 colon): > 100 µM
- TGI (MDA-N): > 100 µM
- TGI (K-562 leukemia): > 100 µM
- TGI (SF-539 CNS): > 100 µM
- TGI (PC-3 prostate): > 100 µM
- TGI (SNB-75 CNS): > 100 µM
- TGI (HT29 colon): > 100 µM
- TGI (UO-31 renal): > 100 µM
- TGI (UACC-257 melanoma): > 100 µM
- TGI (HOP-92 NSCLC): > 100 µM
- TGI (IGROV1 ovarian): > 100 µM
- TGI (OVCAR-3 ovarian): > 100 µM
